Results as given in patent publication US9668960B2, “Methods useful in studying or modulating skin or hair pigmentation, plant extracts for use in compositions and cosmetic care method” (L V M H RECHERCHE, priority 2008, dated 2017).

Key:
[1] = system: melanosome transfer from melanocytes to matched keratinocytes; experiment: Quantitative analysis of gp100-positive melanosome transfer in melanocyte-keratinocyte co-culture; type: cell-based, human; conditions: for gp 100+ Spots/KC / % Change of Melanin Transfer vs. Basal: 24 h; for gp 100+ Spots/KC: co-culture F39, L-18 0.001%, L-19 1%, L-20 0.5%, L-21 10 μg/ml, L-22 1%, L-23 0.05 μg/ml, basal 27.3; for % Change of Melanin Transfer vs. Basal: same doses as E10
Protocol: Quantitative analysis of melanosome transfer: Fully-matched epidermal melanocytes (p4) and epidermal keratinocytes (p2) from 4 normal individuals (i.e., F39; F67; F54; F52) were maintained in 8-well Lab-Tek® chamber slides at a total cell density of 2×10^4 cells/well and in a ratio of 1 melanocyte to 10 normal keratinocytes. The co-culture was maintained for further 24 h before washing 3-times with sterile PBS before incubation with starved medium alone, or L-18 (0.001%), L-19 (1%), L-20 (0.5%), L-21 (10 μg/ml), L-22 (1%) and L-23 (0.05 μg/ml) for 12 and 72 h. Controls included IBMX (100 μM) and niacinamide (10 μM). Cells were then processed for immunofluorescence staining with gp100 to assess melanosome transfer to keratinocytes.
Evaluation of melanosome transfer was performed by counting fluorescent gp100-positive spots within recipient keratinocytes in 5 random microscopic fields per well at 100× magnification (oil-immersion) in 3 independent experiments. To avoid counting melanin granules that may still be associated with melanocytes, we only counted gp100-positive spots within keratinocytes that were not in direct contact with melanocytes.
Gp100 immunostaining provides a powerful tracking method for the global assessment of melanin transfer to keratinocytes, and for the evaluation of melanocyte phenotype modulators (Singh et al., 2008). […] In this assay melanosome transfer from melanocytes to matched keratinocytes under basal (i.e., unstimulated) conditions was determined at an average of 27.3 gp100-positive spots per keratinocyte. However, this was increased almost 4-fold after 24 h stimulation of co-cultures with IBMX to 99.5 gp100-positive spots per keratinocyte. Conversely, niacinamide reduced melanosome transfer by 28% (19.6 gp100-positive spots per keratinocyte; p<0.01; a result that correlates with its clinical use as a lightener of cutaneous pigmentation (Hakozaki et al, 2002; Greatens et al., 2005).
Means are ±SEM of 4 independent experiments with **P<0.01, ***P<0.001.

tyrosinase = experiment: Tyrosinase activity in normal human melanocyte and keratinocyte co-culture (EM:KC); type: cell-based; conditions: 72 h; for % Change in EM Tyrosinase Activity of stimulated EM vs. stimulated EM-EK) level (i.e. 12.16): co-culture versus monoculture under the same stimulus; for % Change in EM Tyrosinase Activity vs. Basal EM level (i.e. 0), EM-EK: matched EM-EK co-culture (F52), L-18 0.001%, L-23 0.05 μg/ml, IBMX 100 μM, niacinamide 10 μM, basal co-culture +12.16
Protocol: The cells were prepared for SDS-PAGE and transblotted onto PVDF membranes. 70 μg of un-reduced protein extract without boiling was pipetted into the appropriate wells of 8% SDS-PAGE gels. […] The L-DOPA reaction was stopped by washing the membrane in distilled water and the membrane was scanned. […] Normal human epidermal melanocyte culture (Female-52; p5) and matched co-culture […] MC-KC were treated for 72 h with L-18 (0.001%), L-23 (0.05 μg/ml). Controls: Melanocytic modulators: IBMX (100 μM), and niacinamide (10 μM). Negative control lane: Keratinocytes only (A) Protein extracts were electroblotted and membranes stained with L-DOPA for the estimation of tyrosinase activity. (B) Densitometric scanning of band intensities and values were expressed as the fold increase compared to unstimulated control levels. Means are ±SEM of 3 independent experiments with *P<0.05, **P<0.01, ***P<0.001.

[2] = system: Normal human epidermal melanocytes (F52; p5); experiment: Melanin assay (melanogenesis) in normal pigmented human melanocytes; type: cell-based; conditions: 72 h; for Changes in melanin levels, F52 EM % change: L-18 0.001%, L-19 1%, L-20 0.5%, L-21 10 μg/ml, L-22 1%, L-23 0.05 μg/ml, IBMX 100 μM, NH4Cl 100 μM, niacinamide 10 μM, vs basal; for Melanin content, F52 EM (pg/cell): same doses as E1, basal 35.63
Protocol: Cells were then washed 3-times with sterile PBS and supplemented with 350 μl of either fresh serum-free RPMI medium (melanoma cells) or starved serum-free and BPE-free melanocyte medium (EM) and incubated at 37° C. and 5% CO2 for 24 h. Cells were then washed with sterile PBS 3-times and incubated with IBMX 1×10^-4 M at 37° C. and 5% CO2 for 12, 24, and 72 h. Cells were then gently washed 3-times with sterile PBS and fixed in ice-cold methanol for 10 minutes at -20° C. Slides were stored at -20° C. until immunocytochemistry was performed. […] The melanin standards were pipetted into a 96 well plate to produce a calibration curve for the assessment of melanin content in the test samples. 400 μl of 1 M NaOH was added to each cell pellet and dissolved on a heat block (100° C.) for 15 minutes. The pellets were vortexed vigorously and the solubilized pellet was pipetted into the same 96-well plate. The optical densities of the sample were read at […] on a DYNEX REVELATION 4.02 program. Melanin content of each test sample was read from the calibration curve. […] In addition IBMX and NH4Cl (positive melanocytic modulators) and niacinamide (negative modulator) were used as controls. Visible change was not particularly evident in normal melanocyte due to their already high basal melanin levels (FIG. 1). By contrast, visible change was evident in melanoma cells basal melanin levels were low (FIG. 2). […] Normal human epidermal melanocytes (Female-52; p5) were treated for 72 h with L-18 (0.001%), L-19 (1%), L-20 (0.5%), L-21 (10 μg/ml), L-22 (1%) and L-23 (0.05 μg/ml). Controls: Melanocytic modulators: IBMX (100 μM), NH4Cl (100 μM), and niacinamide (10 μM). (A) Melanin content was determined spectro-photometrically (475 nm) after sodium hydroxide solubilise (B) Visible change was not particularly evident in these cells due to their already high basal melanin levels. Results were expressed as change in melanin content (pg/cell) compared to unstimulated control levels. Means are ±SEM of 3 independent experiments with *P<0.05, **P<0.01, ***P<0.001. NS-Not Significant

Structure (SMILES)	gp 100+ Spots/KC ([1]; IBMX 100 μM, niacinamide 10 μM) [Spots/KC]	% Change of Melanin Transfer vs. Basal [1]	melanosome transfer reduced by ([1]; niacinamide 10 μM, p<0.01) [%]	% Change in EM Tyrosinase Activity of stimulated EM vs. stimulated EM-EK) level (i.e. 12.16) (tyrosinase)	% Change in EM Tyrosinase Activity vs. Basal EM level (i.e. 0), EM-EK (tyrosinase)	Changes in melanin levels, F52 EM % change [2]	Melanin content, F52 EM (pg/cell) [2]	melanosome transfer increased, fold versus basal ([1]; 24 h stimulation of co-cultures, IBMX 100 μM) [fold]
NC(=O)c1cccnc1 [niacinamide]	19.6	−28%	28	−18.84%	−20.50%	−4.01%	(34.2) pg/cell	
CC(C)Cn1c(=O)n(C)c(=O)c2[nH]cnc21 [IBMX]	99.5	+264%		+23.57%	+93.41%	+74.57%	(62.2) pg/cell	~4
